Test results published in patent US20110212908A1, “TOPICAL COMPOSITIONS AND THE USE THEREOF” (priority 2005, published 2011).

Tested on: Pseudomonas
Test: Inhibition of adhesion of Pseudomonas strains P1, P2, P3 on canine corneocytes
Assay type: cell-based
Conditions: monosaccharides at 0.05% and 0.1% in PBS, vs positive control without monosaccharides (100%)
Protocol: A study comparing the inhibition, by monosaccharides, of the adhesion of three different strains of Pseudomonas, P1, P2, P3, was conducted on canine corneocytes. The three monosaccharides studied are respectively D-galactose, D-mannose and L-rhamnose.
The three strains of Psedomonas were taken from dogs with infectious otitis. Corneocytes were taken from six different healthy dogs using D-squame™-brand adhesive pads, sold by the CuDerm™ Company.
Bacterial suspensions were produced, each containing one of the three strains P1, P2 or P3, and PBS (phosphate-buffered saline) with or without monosaccharides at two concentrations (0.05% and 0.1%). These suspensions were each placed on a corneocyte layer. These layers were then incubated in a humidity chamber. After incubation, the corneocytes were washed and stained. The adherent Pseudomonas were then quantified by computer-assisted image analysis.
The percentage of adherence of the strains in the presence of monosaccharides was then calculated with respect to the percentage of adherence of the strains without monosaccharides (positive control).
The adherence percentages were compared for the three strains P1 to P3 with respect to the positive control (100%).

SMILES | mean inhibition percentage for the three Pseudomonas strains
O=C[C@@H](O)[C@@H](O)[C@H](O)[C@H](O)CO [D-mannose] | 19.4%
C[C@H](O)[C@H](O)[C@@H](O)[C@@H](O)C=O [L-rhamnose] | 30.8%
O=C[C@H](O)[C@@H](O)[C@@H](O)[C@H](O)CO [D-galactose] | 25.6%
